Experimental data published in patent US12077503B2, “Substituted cyclic amides and their use as herbicides” (FMC CORPORATION, priority 2015, dated 2024).

Columns and labels:
Format in all cases: in vivo
[1] = system: Galium (catchweed bedstraw, Galium aparine); assay: Test A postemergence
Text: (§1) Seeds of plant species selected from barnyardgrass (Echinochloa crus-galli), Kochia (Kochia scoparia), ragweed (common ragweed, Ambrosia elatior), ryegrass, Italian (Italian ryegrass, Lolium multiflorum), crabgrass, large (Digitaria sanguinalis), giant foxtail (Setaria faberii), green foxtail (Setaria viridis), morningglory (Ipomoea spp.), pigweed (Amaranthus retroflexus), velvetleaf (Abutilon theophrasti), wheat (Triticum aestivum), and corn (Zea mays) were planted into a blend of loam soil and sand and treated preemergence with a directed soil spray using test chemicals formulated in anon-phytotoxic solvent mixture which included a surfactant.
(§2) At the same time, plants selected from these crop and weed species and also blackgrass (Alopecurus myosuroides), and Galium (catchweed bedstraw, Galium aparine) were planted in pots containing the same blend of loam soil and sand and treated with postemergence applications of test chemicals formulated in the same manner. Plants ranged in height from 2 to 10 cm and were in the one- to two-leaf stage for the postemergence treatment. Treated plants and untreated controls were maintained in a greenhouse for approximately 10 d, after which time all treated plants were compared to untreated controls and visually evaluated for injury. Plant response ratings, summarized in Table A, are based on a 0 to 100 scale where 0 is no effect and 100 is complete control. A dash (-) response means no test result.

[2] = system: blackgrass (Alopecurus myosuroides); assay: Test A postemergence
Text: as §1, §2

[3] = system: barnyardgrass (Echinochloa crus-galli); assay: Test A postemergence
Text: as §1, §2

[4] = system: ryegrass, Italian (Italian ryegrass, Lolium multiflorum); assay: Test A postemergence
Text: as §1, §2

[5] = system: wheat (Triticum aestivum); assay: Test A postemergence
Text: as §1, §2

[6] = system: ragweed (common ragweed, Ambrosia elatior); assay: Test A postemergence
Text: as §1, §2

Kochia (Kochia scoparia) [7] = assay: Test A postemergence
Text: as §1, §2

corn (Zea mays) = assay: Test A postemergence
Text: as §1, §2

[8] = system: pigweed (Amaranthus retroflexus); assay: Test A postemergence
Text: as §1, §2

[9] = system: giant foxtail (Setaria faberii); assay: Test A postemergence
Text: as §1, §2

[10] = system: barnyardgrass (Echinochloa crus-galli); assay: Test A preemergence; details: Preemergence; for Plant response rating, Barnyardgrass: 125 g ai/ha, visual injury after approximately 10 d, 0 to 100 scale where 0 is no effect and 100 is complete control; for Barnyardgrass plant response rating (0 to 100 scale, 0 is no effect, 100 is complete control): 500 g ai/ha, visual injury approx. 10 d
Text: as §1, §2

[11] = system: ryegrass, Italian (Italian ryegrass, Lolium multiflorum); assay: Test A preemergence; details: Preemergence; for Plant response rating, Ryegrass, Italian: 125 g ai/ha, visual injury after approximately 10 d, 0 to 100 scale where 0 is no effect and 100 is complete control; for Ryegrass, Italian plant response rating (0 to 100 scale, 0 is no effect, 100 is complete control): 500 g ai/ha, visual injury approx. 10 d
Text: as §1, §2

[12] = system: ragweed (common ragweed, Ambrosia elatior); assay: Test A preemergence; details: Preemergence; for Plant response rating, Ragweed: 125 g ai/ha, visual injury after approximately 10 d, 0 to 100 scale where 0 is no effect and 100 is complete control; for Ragweed plant response rating (0 to 100 scale, 0 is no effect, 100 is complete control): 500 g ai/ha, visual injury approx. 10 d
Text: as §1, §2

Kochia (Kochia scoparia) [13] = assay: Test A preemergence; details: Preemergence; for Plant response rating, Kochia: 125 g ai/ha, visual injury after approximately 10 d, 0 to 100 scale where 0 is no effect and 100 is complete control; for Kochia plant response rating (0 to 100 scale, 0 is no effect, 100 is complete control): 500 g ai/ha, visual injury approx. 10 d
Text: as §1, §2

[14] = system: pigweed (Amaranthus retroflexus); assay: Test A preemergence; details: Preemergence; for Plant response rating, Pigweed: 125 g ai/ha, visual injury after approximately 10 d, 0 to 100 scale where 0 is no effect and 100 is complete control; for Pigweed plant response rating (0 to 100 scale, 0 is no effect, 100 is complete control): 500 g ai/ha, visual injury approx. 10 d
Text: as §1, §2

[15] = system: giant foxtail (Setaria faberii); assay: Test A preemergence; details: Preemergence; for Plant response rating, Foxtail, Giant: 125 g ai/ha, visual injury after approximately 10 d, 0 to 100 scale where 0 is no effect and 100 is complete control; for Foxtail, Giant plant response rating (0 to 100 scale, 0 is no effect, 100 is complete control): 500 g ai/ha, visual injury approx. 10 d
Text: as §1, §2

[16] = 125 g ai/ha, postemergence, visual rating after approx. 10 d, 0 to 100 scale (0 no effect, 100 complete control)
[17] = Postemergence, 500 g ai/ha, 0 to 100 scale where 0 is no effect and 100 is complete control

SMILES | Plant response rating, Galium [1, 16] | Plant response rating, Galium [1, 17] | Plant response rating, Blackgrass [2, 16] | Plant response rating, Blackgrass [2, 17] | Plant response rating, Barnyardgrass [3, 16] | Plant response rating, Barnyardgrass [3, 17] | Plant response rating, Ryegrass, Italian [4, 16] | Plant response rating, Ryegrass, Italian [4, 17] | Plant response rating, Wheat [5, 16] | Plant response rating, Wheat [5, 17] | Plant response rating, Ragweed [6, 16] | Plant response rating, Ragweed [6, 17] | Plant response rating, Kochia (Kochia (Kochia scoparia) [7]; [16]) | Plant response rating, Kochia (Kochia (Kochia scoparia) [7]; [17]) | Plant response rating, Corn (corn (Zea mays); [16]) | Plant response rating, Corn (corn (Zea mays); [17]) | Plant response rating, Pigweed [8, 16] | Plant response rating, Pigweed [8, 17] | Plant response rating, Foxtail, Giant [9, 16] | Plant response rating, Foxtail, Giant [9, 17] | also measured
O=C1NCC(c2cccc(C(F)(F)F)c2)C1C(=O)Nc1ccccc1O (stereo not shown) [Compound 557] | 0 | 0 | 0 | 0 | 0 | 0 | 0 | 0 | 0 | 0 | 0 | 0 | 0 | 0 | 0 | 0 | 0 | 0 | 0 | 0 | Plant response rating, Barnyardgrass [10]: 0; Barnyardgrass plant response rating (0 to 100 scale, 0 is no effect, 100 is complete control) [10]: 0; Plant response rating, Ryegrass, Italian [11]: 0; Ryegrass, Italian plant response rating (0 to 100 scale, 0 is no effect, 100 is complete control) [11]: 0; Plant response rating, Ragweed [12]: 0; Ragweed plant response rating (0 to 100 scale, 0 is no effect, 100 is complete control) [12]: 0; Plant response rating, Kochia (Kochia (Kochia scoparia) [13]): 0; Kochia plant response rating (0 to 100 scale, 0 is no effect, 100 is complete control) (Kochia (Kochia scoparia) [13]): 0; Plant response rating, Pigweed [14]: 0; Pigweed plant response rating (0 to 100 scale, 0 is no effect, 100 is complete control) [14]: 0; Plant response rating, Foxtail, Giant [15]: 0; Foxtail, Giant plant response rating (0 to 100 scale, 0 is no effect, 100 is complete control) [15]: 0
CN1CC(c2ccc(Br)cc2)C(C(=O)Nc2ccccc2S(C)(=O)=O)C1=O (stereo not shown) [Compound 565] | 60 | 60 | 40 | 60 | 80 | 90 | 20 | 30 | 0 | 40 | 0 | 50 | 20 | 60 | 0 | 20 | 20 | 60 | 80 | 90 | Plant response rating, Barnyardgrass [10]: 80; Barnyardgrass plant response rating (0 to 100 scale, 0 is no effect, 100 is complete control) [10]: 90; Plant response rating, Ryegrass, Italian [11]: 0; Ryegrass, Italian plant response rating (0 to 100 scale, 0 is no effect, 100 is complete control) [11]: 40; Plant response rating, Ragweed [12]: 50; Ragweed plant response rating (0 to 100 scale, 0 is no effect, 100 is complete control) [12]: 50; Plant response rating, Kochia (Kochia (Kochia scoparia) [13]): 70; Kochia plant response rating (0 to 100 scale, 0 is no effect, 100 is complete control) (Kochia (Kochia scoparia) [13]): 90; Plant response rating, Pigweed [14]: 70; Pigweed plant response rating (0 to 100 scale, 0 is no effect, 100 is complete control) [14]: 80; Plant response rating, Foxtail, Giant [15]: 90; Foxtail, Giant plant response rating (0 to 100 scale, 0 is no effect, 100 is complete control) [15]: 90
